One data set concerns HaCat cells. Conditions: cited from earlier work.
The next data set deals with A549. Conditions: cited from earlier work.
In data set [1] the test system is dengue, Zika, and Japanese encephalitis viruses. The note with it: depending the assay and detection systems ref 32, 47, 48; cited from earlier work.
A further data set is described as follows: in vitro. Conditions: rhesus monkey. From the text: (§1) LLC/MK2 (ATCC® CCL-7), HEK-293 (ATCC® CRL-1573), HepG2 (ATCC® HB-8065), THP-1 (ATCC® TIB-202), Huh-7, RD (ATCC® CCL-136™), and C6/36 (ATCC® CRL-1660) cell lines were propagated and maintained as previously described[16],[21],[40],[53]. Reference DENV1 (16007), DENV2 (NGC, 16681), DENV3 (16562), DENV4 (1036), ZIKV (SV0127/14), and EV-A71 (BRCR) were propagated in Vero, C6/36, and R.D. cells as described[16],[21] Phumee et al.[53]. Cytotoxic concentration (CC50) of LLC/MK2, THP-1, HEK-293, HepG2, Huh-7, and R.D. cells were analyzed as previously described. […] Briefly, cells were seeded overnight and infected with each virus at the multiplicity of infection (M.O.I.) of 0.1 for 1 h. The compound was added during and after infection, and cells were incubated for 72 h. Supernatants were collected for 96-well[55] or a traditional 24-well plaque titration.
Supplementary Fig. S2. […] Briefly, cells were seeded overnight before the compound addition.

A further data set deals with DENV1 (16008). The experiment in a line: Antiviral efficacy (EC50), plaque titration. It is filed as cell-based. Conditions: LLC-MK2, 72 h.
Excerpt: as §1

In the next data set the test system is DENV2 (NGC). The experiment in a line: Antiviral efficacy (EC50), plaque titration. It is filed as cell-based. The note with it: Dengue virus, DENV2, LLC-MK2, 72 h.
Excerpt: as §1

In a further data set the test system is DENV4 (1036). The experiment in a line: Antiviral efficacy (EC50), plaque titration. It is filed as cell-based. The note with it: LLC-MK2, 72 h.
Excerpt: as §1

The subject of a further data set is DENV3 (16562). The experiment in a line: Antiviral efficacy (EC50), plaque titration. Type of data set: cell-based. Conditions: LLC-MK2, 72 h.
Excerpt: as §1

The next data set deals with ZIKV (SV0127/14). The experiment in a line: Antiviral efficacy (EC50), plaque titration. It is filed as cell-based. Conditions: Zika virus; ZIKV (SV0127/14), LLC/MK2 cells, M.O.I. 0.1, 72 h.
Excerpt: as §1

The next data set concerns Vero. Conditions: cited from earlier work.
A further data set has as its target T1, DENV2 NS5/RdRp (Dengue virus type 2, UniProt P29990).
T1 construct: The 73.2 kDa of non-tagged NS5/RdRp was successfully purified by size exclusion chromatography; His-tag (N, cleaved yes); made in house
The experiment in a line: In vitro RdRp assay (SYTO-9 fluorescence). It is filed as biochemical, DENV-2. As to the method: The production of DENV2 RdRp was performed according to a described protocol. In brief, N-terminally Histidine-tagged DENV2 RdRp (NHis-RdRp) was expressed with 200 µM IPTG (isopropyl-b-D-thiogalactopyranoside) induction, at 37 °C for 4 h. Cell disruption and clarification were sequentially done via sonication and centrifugation at 15,000 rpm for 1 h at 4 °C. His-tagged RdRp was purified by immobilized metal affinity chromatography (IMAC) with 175 mM imidazole elution. His-tag was removed by adding 2 units thrombin per 1 mg protein during dialysis for 2 days at 4 °C. The non-tagged RdRp was further purified by size exclusion chromatography. […]
The RdRp assay for inhibition testing was adapted from the previous publications[46],[71]. […] The nascent double-stranded RNA was quantitated by mixing 10 µl of the reaction mixture with 10 µl of 5 µM SYTO-9 dye in Tris–EDTA buffer and incubating at room temperature for 5 min. Fluorescence was measured at excitation and emission wavelengths of 485 nm and 520 nm, respectively, by using EnSight Multimode Plate Reader (Perkin Elmer, Waltham, MA, USA). The IC50 value was calculated from three independent experiments by using PRISM version 9 (GraphPad Software, Inc., La Jolla, CA, USA).

Where only a bound is given, the exact number is not on record here.

This passage reports CC50, EC50 and IC50 results from paper PMC10039358, “The 8-bromobaicalein inhibited the replication of dengue, and Zika viruses and targeted the dengue polymerase” (Scientific Reports, 2023).

The term EC50 denotes the concentration giving half of the maximal effect. One may read the IC50 as the concentration needed to halve the response being measured.

Turning to `O=c1cc(-c2ccccc2)oc2cc(O)c(O)c(O)c12` [baicalein, 5,6,7-trihydroxyflavone], the CC50 in the data set on HaCat cells is above 200 µM; with A549, above 50 µM; with Vero, above 100 µM. In addition, the EC50 was 0.004 to 24 µM in data set [1]; 1400 ± 380 nM in the data set on DENV1 (16008); 4.04 ± 1.37 µM in the data set with DENV2 (NGC); 930 ± 130 nM in the data set on DENV4 (1036); 1190 ± 660 nM with DENV3 (16562); 1580 ± 420 nM in the data set with ZIKV (SV0127/14). This compound came in with a CC50 at 48 h in the data set “in vitro” above 250 µM. Also, the IC50 against DENV2 NS5/RdRp was found to be 242 µM.
